In PMC3420979 (Bioorganic & medicinal chemistry letters, 2012):

Assays:
[1] = biological target: Abl (Homo sapiens, UniProt P00519); assay: Human kinase inhibition, Abl; assay type: biochemical; details: parasite CDPK1s versus human Src or Abl
[2] = biological target: T1, CpCDPK1 (Cryptosporidium parvum, UniProt A3FQ16); assay: Enzyme inhibition assay, CpCDPK1; assay type: biochemical; details: IC50 against CpCDPK1 (nM), stated for both parasite CDPK1s
T1 sequence (A3FQ16 1-538): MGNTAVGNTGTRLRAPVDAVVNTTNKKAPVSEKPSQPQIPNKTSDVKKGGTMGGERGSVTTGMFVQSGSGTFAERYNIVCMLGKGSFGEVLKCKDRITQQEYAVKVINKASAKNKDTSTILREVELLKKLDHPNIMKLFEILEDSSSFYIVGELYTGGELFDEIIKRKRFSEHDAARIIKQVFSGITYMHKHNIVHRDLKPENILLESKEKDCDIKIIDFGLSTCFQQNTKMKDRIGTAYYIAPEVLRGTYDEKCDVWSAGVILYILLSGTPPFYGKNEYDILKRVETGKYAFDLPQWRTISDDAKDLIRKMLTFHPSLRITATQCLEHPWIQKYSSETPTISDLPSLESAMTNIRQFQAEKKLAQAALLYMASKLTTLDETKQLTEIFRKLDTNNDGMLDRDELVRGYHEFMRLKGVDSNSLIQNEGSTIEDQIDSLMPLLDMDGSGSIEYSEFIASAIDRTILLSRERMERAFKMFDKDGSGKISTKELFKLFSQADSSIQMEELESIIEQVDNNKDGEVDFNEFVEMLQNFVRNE

Sequence of Abl (P00519 whole entry): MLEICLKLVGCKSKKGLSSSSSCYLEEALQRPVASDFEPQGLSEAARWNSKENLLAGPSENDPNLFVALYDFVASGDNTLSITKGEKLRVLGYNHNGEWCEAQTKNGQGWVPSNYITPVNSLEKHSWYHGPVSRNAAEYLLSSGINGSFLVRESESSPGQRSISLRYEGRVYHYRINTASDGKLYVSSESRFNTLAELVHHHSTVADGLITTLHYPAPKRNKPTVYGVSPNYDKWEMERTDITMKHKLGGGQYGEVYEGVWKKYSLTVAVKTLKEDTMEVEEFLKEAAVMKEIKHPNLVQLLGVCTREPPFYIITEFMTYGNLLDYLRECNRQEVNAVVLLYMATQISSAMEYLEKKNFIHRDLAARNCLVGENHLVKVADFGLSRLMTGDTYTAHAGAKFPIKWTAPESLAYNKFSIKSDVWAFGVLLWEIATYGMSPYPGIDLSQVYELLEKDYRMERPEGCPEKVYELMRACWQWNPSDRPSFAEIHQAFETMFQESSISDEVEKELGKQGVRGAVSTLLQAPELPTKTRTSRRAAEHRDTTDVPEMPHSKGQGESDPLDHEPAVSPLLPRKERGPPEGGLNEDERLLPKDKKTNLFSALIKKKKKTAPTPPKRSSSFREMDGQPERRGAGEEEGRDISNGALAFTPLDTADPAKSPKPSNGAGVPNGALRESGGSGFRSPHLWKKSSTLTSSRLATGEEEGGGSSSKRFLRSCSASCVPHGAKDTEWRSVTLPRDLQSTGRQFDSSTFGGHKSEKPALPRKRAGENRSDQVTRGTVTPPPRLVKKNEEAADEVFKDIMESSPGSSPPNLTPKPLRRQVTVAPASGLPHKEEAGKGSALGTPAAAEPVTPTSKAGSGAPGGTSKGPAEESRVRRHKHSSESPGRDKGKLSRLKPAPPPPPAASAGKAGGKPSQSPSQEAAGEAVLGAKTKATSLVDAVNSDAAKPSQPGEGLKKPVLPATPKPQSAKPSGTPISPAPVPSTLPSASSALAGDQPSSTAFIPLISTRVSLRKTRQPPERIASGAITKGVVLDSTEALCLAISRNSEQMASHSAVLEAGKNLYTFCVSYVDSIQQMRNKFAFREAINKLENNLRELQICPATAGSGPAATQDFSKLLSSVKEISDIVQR

| selectivity index over human Src or Abl [1] | IC50 [2] | SMILES |
| --- | --- | --- |
| > 200 fold | < 50 nM | Nc1nc2ccc(C(=O)c3ccccc3)cc2n1CCC1CCNCC1 [7c] |
| > 200 fold | < 50 nM | CN1CCN(CCn2c(N)nc3ccc(C(=O)c4ccccc4)cc32)CC1 [7p] |
